The values below come from US20210238162A1, “CHEMICAL COMPOUNDS” (GlaxoSmithKline Intellectual Property Development Limited, priority 2015, published 2021).

The test deals with T1, haematopoietic prostaglandin D synthase (H-PGDS) (Homo sapiens, UniProt O60760).
T1 construct: Full length human H-PGDS cDNA (Invitrogen Ultimate ORF IOH13026) was amplified by PCR; made in house; host or cells: E. coli BL21 (DE3*), vector pET22b+
Briefly: H-PGDS RapidFire High Throughput Mass Spectrometry Assay. It is filed as biochemical. The procedure: The H-PGDS RapidFire™ mass spectrometric assay monitors conversion of prostaglandin H2 (PGH2) to prostaglandin D2 (PGD2) by haematopoietic prostaglandin D synthase (H-PGDS). In the assay format described here, the substrate (PGH2) is formed in situ by the action of cyclooxygenase-2 on arachidonic acid. This first step is set up to be fast, and generates a burst of PGH2 at ˜10 μM. The PGH2 is then further converted to PGD2 by the H-PGDS enzyme. […] Plates are then read on the RapidFire™ high throughput solid phase extraction system (Agilent) which incorporates a solid phase extraction step coupled to a triple quadrupole mass spectrometer (AB SCIEX). Relative levels of PGD2 and PGF2α, which acts as a surrogate for substrate, are measured and a percent conversion calculated.
Full length human H-PGDS cDNA (Invitrogen Ultimate ORF IOH13026) was amplified by PCR with the addition of a 5′ 6-His tag and TEV protease cleavage site. The PCR product was digested with Ndel and Xhol and ligated into pET22b+ (Merck Novagen®). Expression was carried out in E. coli strain BL21 (DE3*) using auto-induction Overnight Express™ Instant TB medium (Merck Novagen®) supplemented with 1% glycerol. The culture was first grown at 37° C. and the temperature was reduced to 25° C. when OD600 reached 2.0. Cells were harvested by centrifugation after a further 18 hr. 10 g of E. coli cell pellet was suspended to a total volume of 80 mL in lysis buffer (20 mM Tris-Cl pH 7.5, 300 mM NaCl, 20 mM imidazole, 5 mM β-mercaptoethanol, 10% glycerol). 1 mg/mL protease inhibitors (Protease Inhibitor Cocktail Set Ill, Merck Calbiochem®) and 1 mg/mL lysozyme were added to the cell suspension. The suspension was then sonicated for 5 min (UltraSonic Processor VCX 750, Cole-Parmer Instrument Co.) with a micro probe (50% amplitude, 10 sec on/off) and then centrifuged at 100,000 g for 90 min (at 4° C.). The supernatant was loaded onto a Ni-NTA HiTrap column (5 mL, GE Heathcare, pre-equilibrated in lysis buffer). The column was washed with 10 column volumes of lysis buffer and eluted with lysis buffer containing 500 mM imidazole. The pooled protein peak fractions were concentrated using a 10 kDa centrifugal filter at 3500 g and 4° C. (Amicon Ultra-15 centrifugal filter unit with Ultracel-10 membrane from Millipore). Further purification of the concentrated protein was carried out using gel filtration chromatography on a HiLoad 26/600 Superdex 75 preparative grade column (GE Healthcare Life Sciences) using 50 mM Tris pH 7.5, 50 mM NaCl, 1 mM dithiothreitol, 1 mM MgCl2. Fractions containing the protein were pooled, concentrated as described above, and stored at −80° C.
The full length human COX-2 gene (accession number L15326) was amplified by PCR to generate an EcoRI-HindIII fragment containing an in-frame FLAG tag. This was subcloned into pFastBac 1 (Invitrogen). The COX2 FLAG plasmid was recombined into the baculovirus genome according to the BAC-to-BAC protocol described by Invitrogen. Transfection into Spodoptera frugiperda (Sf9) insect cells was performed using Cellfectin (Invitrogen), according to the manufacturer's protocol. […] Recombinant virus was added at a Multiplicity of Infection (MOI) of 5 and the culture was allowed to continue for 3 days. Cells were harvested using a continuous feed centrifuge run at 2500 g at a rate of approximately 2 L/min with cooling. The resultant cell slurry was re-centrifuged in pots (2500 g, 20 min, 4° C.) and the cell paste was stored at −80° C. […] The suspension was sonicated in 500 mL batches for 8×5 seconds at 10 u amplitude with the medium tip of an MSE probe sonicator and subsequently incubated at 4° C. for 90 min with gentle stirring. The lysate was centrifuged at 12000 rpm for 45 min at 4° C. in a Sorvall SLA1500 rotor. The supernatant (1400 mL) was added to 420 mL of 20 mM Tris-Cl pH 7.4, 150 mM NaCl, 0.1 mM EDTA to reduce the concentration of n-octyl-β-D-glucopyranoside to 1% w/v.

Setting [1] is: H-PGDS RapidFire MS assay, mean pIC50, read-out: Potency Range (mean pIC50) (converted).
[2] abbreviates: in at least one experimental run, read-out: H-PGDS pIC50 value (converted).

SMILES strings stand for the structures. Counter-ions that a name gives are not always drawn. Like-named read-outs stand apart in the source and are kept apart here. Where only a bound is given, the exact number is not on record here.

T1 sequence (O60760 whole entry): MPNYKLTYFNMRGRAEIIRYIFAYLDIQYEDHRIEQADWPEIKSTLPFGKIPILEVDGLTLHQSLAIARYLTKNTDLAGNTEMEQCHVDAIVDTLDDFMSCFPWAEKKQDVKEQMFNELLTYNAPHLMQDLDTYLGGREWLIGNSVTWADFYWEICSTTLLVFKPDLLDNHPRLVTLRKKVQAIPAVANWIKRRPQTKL

Turning to `CC(C)(O)[C@H]1CC[C@H](NC(=O)c2cnc3cc(N=[N+]=[N-])c(Cl)cc3c2)CC1` [Example 168, 7-Azido-6-chloro-N-(trans-4-(2-hydroxypropan-2-yl)cyclohexyl)quinoline-3-carboxamide], under setting [1], the IC50 was 10 to 79.4 nM.

For the molecule `O=C(N[C@H]1CC[C@@H](N2CC(O)(C(F)(F)F)C2)CC1)c1cnc2cc(OC(F)F)c(F)cc2c1` [Example 91, 7-(Difluoromethoxy)-6-fluoro-N-(cis-4-(3-hydroxy-3-(trifluoromethyl)azetidin-1-yl)cyclohexyl)quinoline-3-carboxamide], the IC50 under setting [1] is 100 to 1000 nM.

Turning to `O=C(N[C@H]1CCN(CC2CC2)C1=O)c1cnc2cc(OC(F)F)c(Cl)cc2c1` [Example 120, (S)-6-Chloro-N-(1-(cyclopropylmethyl)-2-oxopyrrolidin-3-yl)-7-(difluoromethoxy)quinoline-3-carboxamide], the IC50 under setting [1] is 10 to 79.4 nM.

For the molecule `CS(=O)(=O)N1CCC(NC(=O)c2cnc3cc(OC(F)F)ccc3c2)CC1` [Example 7, 7-(Difluoromethoxy)-N-(1-(methylsulfonyl)piperidin-4-yl)quinoline-3-carboxamide], the IC50 under setting [1] is 10 to 79.4 nM.

For `CCOC(=O)c1cnc(N2CCC(NC(=O)c3cnc4cc(OC(F)F)c(F)cc4c3)CC2)o1` [Example 72, Ethyl 2-(4-(7-(difluoromethoxy)-6-fluoroquinoline-3-carboxamido)piperidin-1-yl)oxazole-5-carboxylate], the IC50 under setting [1] is 10 to 79.4 nM.

Consider `CCOC(=O)c1cnc(N2CC[C@H](NC(=O)c3cnc4cc(OC(F)F)c(F)cc4c3)C2)o1` [Example 80, (S)-Ethyl 2-(3-(7-(difluoromethoxy)-6-fluoroquinoline-3-carboxamido)pyrrolidin-1-yl)oxazole-5-carboxylate trifluoroacetic acid salt], for which the IC50 under setting [1] is 10 to 79.4 nM.

Consider `NC(=O)CO[C@H]1CC[C@H](NC(=O)c2cnc3cc(OC(F)F)c(Cl)cc3c2)CC1` [Example 136, N-(trans-4-(2-Amino-2-oxoethoxy)cyclohexyl)-6-chloro-7-(difluoromethoxy)quinoline-3-carboxamide], for which the IC50 under setting [1] was < 10 nM.

`C[C@]1(O)CC[C@@H](NC(=O)c2cnc3cc(OC(F)F)c(Cl)cc3c2)CC1` [Example 147, 6-Chloro-7-(difluoromethoxy)-N-((1s,4s)-4-hydroxy-4-methylcyclohexyl)quinoline-3-carboxamide]: under setting [1], the IC50 was 10 to 79.4 nM.

Regarding `CC(C)(O)[C@H]1CC[C@H](NC(=O)c2cnc3cc(Cl)ccc3c2)CC1` [Example 204, 7-Chloro-N-(trans-4-(2-hydroxypropan-2-yl)cyclohexyl)quinoline-3-carboxamide], the IC50 under setting [1] was 100 to 1000 nM and the IC50 under setting [2] was 158 nM.

In the case of `O=C(N[C@H]1CC[C@H](NCC(F)F)CC1)c1cnc2cc(OC(F)F)c(F)cc2c1` [Example 49, N-(trans-4-((2,2-Difluoroethyl)amino)cyclohexyl)-7-(difluoromethoxy)-6-fluoroquinoline-3-carboxamide], the IC50 under setting [1] is 10 to 79.4 nM.

Take `O=C(N[C@H]1CC[C@H](NCC(F)F)CC1)c1cnc2cc(C3CC3)c(F)cc2c1` [Example 43, 7-Cyclopropyl-N-(trans-4-((2,2-difluoroethyl)amino)cyclohexyl)-6-fluoroquinoline-3-carboxamide]: under setting [1], the IC50 is < 10 nM.

As for `N#Cc1cnc(N2CCC(NC(=O)c3cnc4cc(OC(F)F)c(F)cc4c3)CC2)o1` [Example 97, N-(1-(5-Cyanooxazol-2-yl)piperidin-4-yl)-7-(difluoromethoxy)-6-fluoroquinoline-3-carboxamide], the IC50 under setting [1] is 10 to 79.4 nM.

For `Cn1nc(C2CC2)cc1NC(=O)c1cnc2cc(OC(F)F)c(Cl)cc2c1` [Example 128, 6-Chloro-N-(3-cyclopropyl-1-methyl-1H-pyrazol-5-yl)-7-(difluoromethoxy)quinoline-3-carboxamide], the IC50 under setting [1] was 10 to 79.4 nM.

With `Cc1cc(NC(=O)c2cnc3cc(OC(F)F)ccc3c2)[nH]n1` [Example 8, 7-(Difluoromethoxy)-N-(3-methyl-1H-pyrazol-5-yl)quinoline-3-carboxamide], the IC50 under setting [1] is 10 to 79.4 nM.

In the case of `O=C(N[C@H]1CCNC1=O)c1cnc2cc(C3CC3)ccc2c1` [Example 45, (S)-7-Cyclopropyl-N-(2-oxopyrrolidin-3-yl)quinoline-3-carboxamide hydrochloride], under setting [1], the IC50 was 10 to 79.4 nM.

As to `Cn1nnnc1N1CCC(NC(=O)c2cnc3cc(Br)c(Cl)cc3c2)CC1` [Example 27, 7-Bromo-6-chloro-N-(1-(1-methyl-1H-tetrazol-5-yl)piperidin-4-yl)quinoline-3-carboxamide], the IC50 under setting [1] was 10 to 79.4 nM.

`COc1cc2ncc(C(=O)NC3CCN(c4nnnn4C)CC3)cc2cc1F` [Example 46, 6-Fluoro-7-methoxy-N-(1-(1-methyl-1H-tetrazol-5-yl)piperidin-4-yl)quinoline-3-carboxamide]: the IC50 under setting [1] is 100 to 1000 nM and the IC50 under setting [2] is 126 nM.

Consider `CC(C)(O)[C@H]1CC[C@H](NC(=O)c2cnc3c(F)c(OC(F)F)c(Cl)cc3c2)CC1` [Example 236, 6-Chloro-7-(difluoromethoxy)-8-fluoro-N-(trans-4-(2-hydroxypropan-2-yl)cyclohexyl)quinoline-3-carboxamide], for which the IC50 under setting [1] is < 10 nM.

As for `CC1C[C@H](NC(=O)c2cnc3cc(OC(F)F)c(Cl)cc3c2)C(=O)N1` (mixture of isomers) [Example 133, 6-Chloro-7-(difluoromethoxy)-N-((3S)-5-methyl-2-oxopyrrolidin-3-yl)quinoline-3-carboxamide], the IC50 under setting [1] is 10 to 79.4 nM.

With `CO[C@H]1CC[C@H](NC(=O)c2cnc3cc(OC(F)F)c(F)cc3c2)CC1` [Example 55, 7-(Difluoromethoxy)-6-fluoro-N-(trans-4-methoxycyclohexyl)quinoline-3-carboxamide], under setting [1], the IC50 was 10 to 79.4 nM.

Consider `O=C(N[C@H]1CC[C@H](N2CC(O)(C(F)(F)F)C2)CC1)c1cnc2cc(OC(F)F)c(Cl)cc2c1` [Example 134, 6-Chloro-7-(difluoromethoxy)-N-(trans-4-(3-hydroxy-3-(trifluoromethyl)azetidin-1-yl)cyclohexyl)quinoline-3-carboxamide], for which the IC50 under setting [1] was < 10 nM.

As to `O=C(N[C@H]1CC[C@H](N[C@H](CO)C(F)(F)F)CC1)c1cnc2cc(OC(F)F)c(Cl)cc2c1` [Example 135, 6-Chloro-7-(difluoromethoxy)-N-(trans-4-(((R)-1,1,1-trifluoro-3-hydroxypropan-2-yl)amino)cyclohexyl)quinoline-3-carboxamide], the IC50 under setting [1] is < 10 nM.

With `NS(=O)(=O)O[C@H]1CC[C@H](NC(=O)c2cnc3cc(OC(F)F)c(Cl)cc3c2)CC1` [Example 141, trans-4-(6-Chloro-7-(difluoromethoxy)quinoline-3-carboxamido)cyclohexyl sulfamate], the IC50 under setting [1] is < 10 nM.

As to `CC(C)(O)C(=O)N[C@H]1C[C@H](NC(=O)c2cnc3cc(OC(F)F)c(Cl)cc3c2)C1` [Example 226, 6-Chloro-7-(difluoromethoxy)-N-(trans-3-(2-hydroxy-2-methylpropanamido)cyclobutyl)quinoline-3-carboxamide], the IC50 under setting [1] was 10 to 79.4 nM.
